The values below come from PMC11277004, “Di- and Triselenoesters—Promising Drug Candidates for the Future Therapy of Triple-Negative Breast Cancer” (International Journal of Molecular Sciences, 2024).

Assay [1] deals with p53. As to the kind of experiment: p53 protein expression by flow cytometry, MDA-MB-231. Format: cell-based, human. The settings on record: 24 h. As for the experimental part: (§1) For this purpose, Akt (PE), Bax (FITC), Bcl-2 (Alexa Fluor® 647), LC3A/B (Alexa Fluor® 488), and p53 (Alexa Fluor® 488) antibodies conjugated to different fluorochromes (all from Cell Signaling Technology, Beverly, MA, USA) were utilized. Each assay was performed according to the manufacturer's protocol available on their website. After incubation with the tested compounds, the cells were centrifuged, resuspended in 4% formaldehyde (100 μL/1 × 10^6 cells), and fixed for 15 min at room temperature. Afterward, to remove the formaldehyde, the cells were washed by centrifugation with excess PBS and the permeabilization step was triggered. For this purpose, ice-cold 90% methanol was added to the pre-chilled cell pellet, gently vortexed, and incubated for 1 h on ice. Later, the cells were washed by centrifugation with excess PBS again, resuspended in 100 μL of 1:100 diluted primary antibody (stain buffer was used for dilution), and incubated for 1 h at room temperature in the dark. After incubation, the cells were washed, resuspended in 300 μL PBS, and immediately tested with a flow cytometer (BD FACSCanto II, BD Biosciences Systems, San Jose, CA, USA; 10,000 events measured). The obtained results were analyzed using the FACSDiva 6.0 software (BD Biosciences Systems, San Jose, CA, USA). In the case of the p53 protein, the MRF values were obtained first during the flow cytometer readout utilizing FACSDiva software and later analyzed using FCS Express 7 (De Novo Software, Pasadena, CA, USA). The equipment calibration was performed using the BD Cytometer Setup and Tracking Beads (BD Biosciences, San Diego, CA, USA).
(In general: In flow cytometry, cells or beads pass a laser one at a time.)

Assay [2] concerns MCF-10A normal human breast epithelial cells. Nature of the assay: DNA biosynthesis assay ([3H]-thymidine incorporation), MCF-10A. The settings on record: read-out: IC50, DNA biosynthesis. Format: cell-based. As for the experimental part: (§2) The study of the antiproliferative properties (intensity of [^3H]-thymidine incorporation into cell DNA) of the tested derivatives against tested cell lines (MCF-7, MDA-MB-231, MCF-10A) was performed after 24 h incubation with varied concentrations of the tested compounds in the medium (0.5–5 µM) in 6-well plates (baseline seeding density: 5 × 10^5 cells/well). After 24 h the medium was removed, the cells were washed with PBS (Corning, Kennebunk, ME, USA), and a fresh medium was added. After that, the cells were treated with 0.5 µCi of tritium-labeled thymidine (specific activity 7 Ci/mmol) by incubating them with this compound for 4 h under the same conditions as the cell culture. In the first step, the medium was removed, and the cell monolayer was washed twice with 1 mL of 0.05 M Tris-HCl buffer pH 7.4 containing 0.11 M NaCl. To denature proteins, the cells were washed twice with 1 mL of 5% trichloroacetic acid (TCA) solution. Finally, cell lysis was performed by adding 1 mL of 0.1 M sodium hydroxide (NaOH) solution containing 1% sodium dodecyl sulfate (SDS) to each well. After five minutes, the obtained cell lysates were transferred to scintillation vials with 2 mL of scintillation fluid added to them beforehand. Radioactivity was measured using the Scintillation Counter 1900 TR, TRI-CARB (Packard, Perkin Elmer, Inc., San Jose, CA, USA). The intensity of DNA biosynthesis in the analyzed cells was expressed in terms of dpm/well. The result of the radioactivity measurement in the control cells (without the addition of tested compounds) was taken as 100%, while the values of cells incubated with the tested compounds were presented as a percentage of the control value.
A general note: Uptake of a labelled nucleoside into DNA is a usual measure of proliferation.

In assay [3] the test system is MCF-7 breast cancer cells. As to the kind of experiment: DNA biosynthesis assay ([3H]-thymidine incorporation), MCF-7. Format: cell-based, human. The settings on record: read-out: IC50, DNA biosynthesis. On the procedure:
as §2

The subject of assay [4] is Bax. Nature of the assay: Bax protein level by flow cytometry, MDA-MB-231. Format: cell-based, human. The settings on record: 24 h. On the procedure:
as §1

Assay [5] deals with MCF-7 breast cancer cells. Nature of the assay: MTT cytotoxicity test, MCF-7. Format: cell-based, human. The settings on record: MCF-7, 24 h incubation, read-out: IC50, cell viability (MTT). As for the experimental part:
(§3) MCF-7 and MDA-MB-231 human breast cancer cell lines, as well as MCF-10A normal human breast epithelial cells, were acquired from the American Type Culture Collection (ATCC, Manassas, VA, USA). The characteristics of the breast cancer cell lines used in this study are compared in Table 1. MCF-7 and MDA-MB-231 cells were cultured in Dulbecco’s modified Eagle’s medium (Gibco, San Diego, CA, USA), while MCF-10A cells were cultured in the mammary epithelial cell growth medium with the following supplements: BPE, hEGF, insulin, hydrocortisone, GA-1000 (Lonza, Basel, Switzerland). All media were complemented by 10% of fetal bovine serum (FBS) and 1% of the following antibiotics: penicillin and streptomycin (both Gibco, San Diego, CA, USA). The cells were maintained in an incubator that provides the optimal growth conditions for the cell culture: 5% CO2, 37 °C, and humidity in a range of 90–95%. The cells were cultured in 100 mm plates (Sarstedt, Newton, NC, USA). Subsequently, after obtaining a subconfluent cell culture, the cells were detached with 0.05% trypsin with 0.02% EDTA (Gibco, San Diego, CA, USA). […] In this study, cells that obtained 80% confluence were used. The MTT assay was used to determine the cytotoxic effects of the compounds in the study on MCF-7 and MDA-MB-231 breast cancer cells as well as MCF-10A normal human breast epithelial cells based on Carmichael’s method. […] After this time, the medium was removed, and the cell monolayer was washed with warm phosphate-buffered saline (PBS) without calcium and magnesium. In the next step, PBS and MTT solution in PBS (5 mg/mL) were added to each well to obtain a final MTT concentration of 0.5 mg/mL, and then the cells were incubated for 4 h (37 °C temperature, 5% CO2, 90–95% humidity). After the incubation period, the contents of each well were removed, 1 mL of DMSO was added to dissolve the formazan, and then the plate with the added DMSO was mixed for 5–10 min on a microplate shaker (Boeco, Hamburg, Germany). Then, 10 µL of Sorensen’s glycine buffer (a solution of 0.1 M glycine and 0.1 M sodium chloride adjusted to pH 10.5 with 0.1 M sodium hydroxide) was added. The absorbance of the obtained solution was immediately measured at a wavelength of λ = 570 nm using a Thermo Scientific Evolution 201 UV–VIS spectrophotometer (Thermo Fisher Scientific, Waltham, MA, USA). The absorbance result obtained in the control cells (without the addition of the tested compounds) was taken as 100%, while the viability of cells incubated with the tested compounds was presented as a percentage of the control value.
A general note: Tetrazolium dyes change colour on reduction, which living cells bring about.

In assay [6] the test system is MDA-MB-231 triple-negative breast cancer cells. Nature of the assay: MTT cytotoxicity test, MDA-MB-231. Type of assay: cell-based, human. The settings on record: MDA-MB-231, 24 h incubation, read-out: IC50, cell viability (MTT). As for the experimental part:
as §3

Assay [7] relates to Bcl-2. Nature of the assay: Bcl-2 protein level by flow cytometry, MDA-MB-231. The settings on record: 24 h. Format: cell-based, human. As for the experimental part:
as §1

For assay [8], the system named is Bax. As to the kind of experiment: Bax protein level by flow cytometry, MCF-7. Format: cell-based, human. The settings on record: 24 h. On the procedure:
as §1

Like-named read-outs stand apart in the source and are kept apart here.

As a reminder, the IC50 is the concentration that gives 50% inhibition.

As to `N.N.[Cl][Pt][Cl]` [Cisplatin, reference compound], the “p53 protein expression, MRF” value is on record as 375.5 ± 3.5 in assay [1] (MDA-MB-231, 0.5 μM) and 423.5 ± 2.1 in assay [1] (MDA-MB-231, 1 μM). Besides, the IC50 was more than 5000 nM in assay [2] (24 h incubation); more than 5000 nM in assay [3] (MCF-7, 24 h incubation); more than 5000 nM in assay [5]; more than 5000 nM in assay [6]. For the same compound, the “Bax positive cells ± SD” value in assay [4] (MDA-MB-231, 0.5 μM) is listed as 1.3 ± 0.3%; in assay [4] (MDA-MB-231, 1 μM), 1.4 ± 0.1%; in assay [8] (MCF-7, 0.5 μM) it was 2.9 ± 0.9%; in assay [8] (MCF-7, 1 μM) it was 3.0 ± 0.8%. The “Bcl-2 negative cells ± SD” value turned out to be 4.3 ± 0.3% in assay [7] (MDA-MB-231, 0.5 μM) and 4.5 ± 0.6% in assay [7] (MDA-MB-231, 1 μM).

In the case of `CC(=O)C[Se]C(=O)c1ccc(C(=O)[Se]CC(C)=O)cc1` [EDAG-1, Se,Se-bis(2-oxopropyl) benzene-1,4-bis(carboselenoate)], the “p53 protein expression, MRF” value in assay [1] (MDA-MB-231, 0.5 μM) was determined as 559.3 ± 63.1; in assay [1] (MDA-MB-231, 1 μM) it was 593.0 ± 10.8. Also, the IC50 amounted to 720 ± 70 nM in assay [2] (Homo sapiens, 24 h); 790 ± 20 nM in assay [3] (Homo sapiens, MCF7, 24 h); 470 ± 60 nM in assay [5] (Homo sapiens, MCF7); 710 ± 60 nM in assay [6] (Homo sapiens). Besides, the “Bax positive cells ± SD” value is 12.5 ± 2.3% in assay [4] (MDA-MB-231, 0.5 μM); 37.8 ± 5.1% in assay [4] (MDA-MB-231, 1 μM); 6.1 ± 0.9% in assay [8] (MCF-7, 0.5 μM); 8.6 ± 1.0% in assay [8] (MCF-7, 1 μM). Moreover, the “Bcl-2 negative cells ± SD” value was found to be 36.1 ± 1.6% in assay [7] (MDA-MB-231, 0.5 μM) and 68.9 ± 5.7% in assay [7] (MDA-MB-231, 1 μM).

As for `CC(=O)C[Se]C(=O)c1cc(C(=O)[Se]CC(C)=O)cc(C(=O)[Se]CC(C)=O)c1` [EDAG-8, Se,Se,Se-tris-(2-oxopropyl) benzene-1,3,5-tris-(carboxyselenoate)], the “p53 protein expression, MRF” value is listed as 624.8 ± 49.7 in assay [1] (MDA-MB-231, 0.5 μM) and 661.5 ± 18.6 in assay [1] (MDA-MB-231, 1 μM). The IC50 in assay [2] (Homo sapiens, 24 h) is 930 ± 70 nM; in assay [3] (Homo sapiens, MCF7, 24 h) it was 960 ± 70 nM; in assay [5] (Homo sapiens, MCF7) it was 610 ± 50 nM; in assay [6] (Homo sapiens), 530 ± 30 nM. For the same compound, the “Bax positive cells ± SD” value in assay [4] (MDA-MB-231, 0.5 μM) turned out to be 34.5 ± 3.4%; in assay [4] (MDA-MB-231, 1 μM) it was 60.3 ± 8.8%; in assay [8] (MCF-7, 0.5 μM) it was 18.0 ± 1.5%; in assay [8] (MCF-7, 1 μM), 32.1 ± 3.1%. The “Bcl-2 negative cells ± SD” value in assay [7] (MDA-MB-231, 0.5 μM) was 51.7 ± 3.5%; in assay [7] (MDA-MB-231, 1 μM) it was 74.9 ± 2.7%.
